In patent EP4775569A1, “3CL PROTEASE INHIBITOR FOR TREATING OR PREVENTING CORONAVIRUS INFECTIONS AND USE THEREOF” (The Global Health Drug Discovery Institute, priority 2023, dated 2025):
Read-outs that look alike come from different tables or passages of the source.

How the values were obtained:
SARS-CoV-2 = assay: SARS-CoV-2/Hela-ACE Test; type: cell-based
[1] = Toxicity Testing in Uninfected Cells; type: cell-based; details: human, Cell-Titer Glo cell viability
Protocol: Toxicity Testing in Uninfected Cells
The compound was transferred to a 1536-well plate (Corning No. 9006BC), and then Hela-ACE cells were added (cell density: 600 cells/5 microliter of medium MEM with 2% FBS). After the assay plate was incubated at 37°C in 5% CO2 for 48 hours, cell viability was tested. 2 µL of 50% Cell-Titer Glo (Promega No G7573) was diluted in water and added to a cell assay plate, and then a value on EnVision Plate Reader (Perkin Elmer) was read.

SARS-CoV-2 3CLpro = SARS-CoV-2 3CLpro (Severe acute respiratory syndrome coronavirus 2, UniProt P0DTD1); assay: Enzyme Activity Test; type: biochemical
[2] = Severe acute respiratory syndrome coronavirus 2, Hela-ACE cells infected with SARS-CoV-2 (USA-WA1/2020), MOI 0.75-1, 48 hours, read-out: Hela ACE2-CoV-2 EC50
[3] = uninfected Hela-ACE (HeLa ACE2) cells

O=C1CCN(c2cc(Cl)cc(OCC(F)(F)F)c2)C(=O)N1c1cncc2ccccc12 [Example 2]
EC50 (SARS-CoV-2; [2]): 0.03 µM
CC50 at 48 h [1, 3]: > 99000 nM

O=C1CCN(c2cc(Cl)cc(OCC3CC3)c2)C(=O)N1c1cncc2ccccc12 [Example 3]
EC50 (SARS-CoV-2; [2]): 0.064 µM
CC50 at 48 h [1, 3]: 73400 nM

O=C1CCN(c2cc(Cl)cc(OCC3CC(F)(F)C3)c2)C(=O)N1c1cncc2ccccc12 [Example 5]
EC50 (SARS-CoV-2; [2]): 0.074 µM
CC50 at 48 h [1, 3]: > 99000 nM

O=C1CCN(c2cc(Cl)cc(N3CC4(COC4)C3)c2)C(=O)N1c1cncc2ccccc12 [Example 23]
EC50 (SARS-CoV-2; [2]): 0.035 µM
CC50 at 48 h [1, 3]: > 99000 nM

O=C1N(c2cc(Cl)cc(OCC(F)(F)F)c2)CC2(CC2)C(=O)N1c1cncc2ccccc12 [Example 33]
EC50 (SARS-CoV-2; [2]): 0.087 µM
CC50 at 48 h [1, 3]: > 99000 nM

Cc1cncc(N2C(=O)CCN(c3cc(Cl)cc(OCC(F)(F)F)c3)C2=O)c1C [Example 47]
IC50 (SARS-CoV-2 3CLpro): 55 nM

Cc1ccc2cncc(N3C(=O)CCN(c4cc(Cl)cc(OCC(F)(F)F)c4)C3=O)c2c1 [Example 48]
EC50 (SARS-CoV-2; Severe acute respiratory syndrome coronavirus 2, HeLa, 48 h, read-out: Hela ACE2-CoV-2 EC50 (µM)): 0.052 µM
CC50 at 48 h ([1]; hela-ace2 cells, uninfected Hela-ACE cells): > 99000 nM
IC50 (SARS-CoV-2 3CLpro): 50 nM

O=C1CCN(c2cc(Cl)cc(OCC(F)(F)F)c2)C(=O)N1c1cncc2ccc(F)cc12 [Example 49]
IC50 (SARS-CoV-2 3CLpro): 43 nM

O=C1CCN(c2cc(F)c(Cl)c(OCC(F)(F)F)c2)C(=O)N1c1cncc2ccccc12 [Example 55]
EC50 (SARS-CoV-2; [2]): 0.072 µM
CC50 at 48 h [1, 3]: 74000 nM
